Tests used:
[1] = test system: Rattus norvegicus; experiment: Percent change in variable interval unpunished responding phase (VI) after administration of 20 mg/Kg oral dose in rat Geller-Seifter test.; format: functional
[2] = target: GABA-A receptor; anion channel; experiment: In vitro inhibition of [35S]t-butyl-bicyclophosphorothionate (TBPS) binding to Gamma-aminobutyric acid A (GABA-A) receptor; format: protein-complex assay, Rattus norvegicus
[3] = species: Rattus norvegicus; experiment: Number of animals responding to the above phases out of 6 tested, expressed as Nr/N; format: functional
[4] = test system: Rattus norvegicus; experiment: Percent change in punished responding phase (FR) after administration of 20 mg/Kg oral dose in rat Geller-Seifter test; format: functional
[5] = target: GABA-A receptor; anion channel; experiment: Inhibition of [3H]flunitrazepam binding to GABA-A receptor; format: protein-complex assay, Rattus norvegicus
[6] = species: Rattus norvegicus; experiment: Number of animals responding to the above phases out of 16 tested, expressed as Nr/N; format: functional
[7] = test system: Rattus norvegicus; experiment: Percent change in punished responding phase (FR) after administration of 40 mg/Kg intraperitoneally in rat Geller-Seifter test; format: functional
[8] = test system: Rattus norvegicus; experiment: Percent change in variable interval unpunished responding phase (VI) after administration of 40 mg/Kg intraperitoneally in rat Geller-Seifter test.; format: functional
[9] = species: Rattus norvegicus; experiment: Number of animals responding to the above phases out of 8 tested, expressed as Nr/N; format: functional
[10] = test system: Rattus norvegicus; experiment: Percent change in punished responding phase (FR) after administration of 20 mg/kg oral dose in rat Geller-Seifter test; format: functional
[11] = test system: Rattus norvegicus; experiment: Percent change in variable interval unpunished responding phase (VI) after administration of 20 mg/kg oral dose in rat Geller-Seifter test.; format: functional
[12] = test system: Rattus norvegicus; experiment: Percent change in punished responding phase (FR) after administration of 20 mg/kg oral dose in rat Geller-Seifter test.; format: functional
[13] = test system: Rattus norvegicus; experiment: Percent change in variable interval unpunished responding phase (VI) after administration of 10 mg/Kg oral dose in rat Geller-Seifter test; format: functional
[14] = test system: Rattus norvegicus; experiment: Percent change in punished responding phase (FR) after administration of 10 mg/Kg oral dose in rat Geller-Seifter test; format: functional

| Structure (SMILES) | IC50 [2] [µM] | Nr/N [3] | IC50 [5] [µM] | further results |
| --- | --- | --- | --- | --- |
| CC1CCc2nc3sc4c(c3c(N)c2C1=O)CCC4 (stereo unspecified) | 1.7 | 5 |  | Change [1]: 0%; Change [4]: 26% |
| COC(=O)c1c(C)nc2c(c(C)c(C)n2C)c1N | 12 |  | > 100 |  |
| Cn1c2ccccc2c2c(N)c3c(nc21)CCCC3 | > 100 |  |  |  |
| CCOC(=O)c1c(C)nc2c(c1N)c1ccccc1n2C |  |  | > 100 | Change [1]: -3%; Change [4]: 22%; Nr/N [6]: 12 |
| CC1CCc2nc3sc4ccccc4c3c(N)c2C1=O (stereo unspecified) | 0.46 | 5 |  | Change [1]: 0%; Change [4]: 30% |
| CC1CCc2nc3sc4c(c3c(N)c2C1=O)CCCC4 (stereo unspecified) | 1.6 |  |  |  |
| COC(=O)c1c(C)nc2sc3c(c2c1N)CCCC3 | 7.5 |  |  | Change [7]: 42%; Change [8]: 0%; Nr/N [9]: 8 |
| CC1CCc2nc3c(c(N)c2C1=O)c1c(n3C)CCCC1 (stereo unspecified) | 2.7 | 5 | 18 | Change [10]: 28%; Change [11]: 1% |
| CC1CCc2nc3sc4c(c3c(N)c2C1=O)CCCCC4 (stereo unspecified) | 0.37 |  |  |  |
| CC1CCc2nc3c(c(N)c2C1=O)c1ccccc1n3C (stereo unspecified) |  | 5 | > 100 | Change [1]: 0%; Change [4]: 52% |
| Nc1c2c(nc3sc4c(c13)CCCCC4)CCCC2=O | 0.29 |  | > 100 |  |
| Cn1c2c(c3c(N)c4c(nc31)CCCC4=O)CCCC2 | 6.3 |  |  |  |
| Cn1c2ccccc2c2cc3c(nc21)CCCC3=O | 10 | 3 | > 100 | Change [11]: 2%; Change [12]: 4% |
| CN1C(=O)CN=C(c2ccccc2)c2cc(Cl)ccc21 [DIAZEPAM] |  |  |  | Change [13]: 10%; Nr/N [9]: 7; Change [14]: 114% |
